Among the data in US20120309739A1, “AKT / PKB INHIBITORS” (ALMAC DISCOVERY LIMITED, priority 2009, published 2012) are IC50 values, retold here.

As a reminder, the IC50 is the concentration that inhibits the measured activity by half.

Assay type in all cases: biochemical
The target in one assay is T1, AKT3 (Homo sapiens, UniProt Q9Y243).
T1 construct: purchased SignalChem
The assay is described as follows: AKT Kinase Assay (IMAP fluorescent polarisation) vs AKT3. The following applies: activated AKT3, FAM Crosstide substrate. The procedure: (§1) Testing of the compounds was performed using an AKT Kinase Assay:
(§2) Activated AKT isoforms 1, 2 and 3 were assayed utilising a 5′ FAM Crosstide (Seq. GRPRTSSFAEG-OH). The extent of kinase phosphorylation was determined by fluorescent polarisation using IMAP progressive binding reagent, which introduces binding beads which allow the reagent to specifically bind to phosphate residues via covalent co-ordination complex bonds.
(§3) iMAP binding solution stops Crosstide/kinase interaction and specifically binds phosphorylated substrates. The degree of phosphorylation is determined by fluorescent polarisation (excitation 485 nm; emission 528 nm) or the reduction in speed of rotation of the excited substrate.
(§4) The following materials were used in the assay: • a) Activated AKT isoforms (SignalChem.) dissolved in Complete Reaction buffer at a pre-determined concentration selected so that the assay was carried out in the linear range. • b) AKT substrate peptide: FAM Crosstide (R7110) Molecular Devices, diluted in complete reaction buffer. • c) iMAP Progressive Screening Express Kit (R8127) Molecular Devices • d) Complete Reaction Buffer containing 0.1% BSA, 10 mM Tris-HCl, 10 mM MgCl2, 0.05% NaN3 and 0.01% phosphate free BSA, 1 mM DTT • e) Progressive Binding Solution containing 75% Buffer A, 25% Buffer B and low volume Binding Reagent which contains the binding entity for the assay • f) ATP diluted in complete reaction buffer • g) Black polystyrene 384 well assay plates (Nunc). • h) Biotek Synergy 4 Hybrid Plate reader.
(§5) 50 μl of test compound was dissolved in DMSO (Sigma Aldrich) and serially diluted in complete reaction buffer to give a fourteen point half log dose response and plated into 384 well black plates. The compound was incubated at room temperature with activated AKT isoform ([…]) at the pre-determined concentration, for 45 minutes.
(§6) […] of ATP solution mixed with 2.5 μl of AKT substrate peptide (FAM Crosstide (R7110) Molecular Devices) were dispensed into each well and the plate centrifuged at 1000 rpm for 20 seconds to ensure homogenous mixing of reagents. The reaction mix was incubated in the dark for one hour at room temperature.
(§7) The kinase reaction was stopped by the addition of Progressive Binding Solution and the mixture allowed to equilibrate for one hour in the dark, at room temperature.
(§8) The fluorescent polarisation generated in each well was determined using a […] Synergy 4 Hybrid plate reader. In brief, each reaction solution was excited at 485 nm with the emission measured at 528 nm in both the parallel and perpendicular pathway.
(§9) The polarisation value generated in each well was calculated by Gen5 software (Biotek) and the % inhibition of kinase activity compared to vehicle control was calculated via GraphPad Prism. IC50 values for each compound were calculated by non-linear regression analysis using Prism software.
(§10) All plates were internally controlled by two methods. Firstly, by calculating the signal:noise ratio; based on kinase polarisation without inhibitor and polarisation generated by complete reaction buffer in the absence of activated kinase. Secondly by determining IC50 values generated by known inhibitors of the AKT isoforms.

In the next assay the target is T2, AKT2 (Homo sapiens, UniProt P31751).
T2 construct: purchased SignalChem
In words: AKT Kinase Assay (IMAP fluorescent polarisation) vs AKT2. The following applies: activated AKT2, FAM Crosstide substrate. As for the experimental part: as §1, §2, §3, §4, §5, §6, §7, §8, §9, §10

Another assay has as its target T3, AKT1 (Homo sapiens, UniProt P31749).
T3 construct: purchased SignalChem
The assay is described as follows: AKT Kinase Assay (IMAP fluorescent polarisation) vs AKT1. Conditions: activated AKT1, FAM Crosstide substrate. The procedure:
as §1, §2, §3, §4, §5, §6, §7, §8, §9, §10

Where a name gives a salt, the structure may show the parent alone.

T2 sequence (P31751 whole entry): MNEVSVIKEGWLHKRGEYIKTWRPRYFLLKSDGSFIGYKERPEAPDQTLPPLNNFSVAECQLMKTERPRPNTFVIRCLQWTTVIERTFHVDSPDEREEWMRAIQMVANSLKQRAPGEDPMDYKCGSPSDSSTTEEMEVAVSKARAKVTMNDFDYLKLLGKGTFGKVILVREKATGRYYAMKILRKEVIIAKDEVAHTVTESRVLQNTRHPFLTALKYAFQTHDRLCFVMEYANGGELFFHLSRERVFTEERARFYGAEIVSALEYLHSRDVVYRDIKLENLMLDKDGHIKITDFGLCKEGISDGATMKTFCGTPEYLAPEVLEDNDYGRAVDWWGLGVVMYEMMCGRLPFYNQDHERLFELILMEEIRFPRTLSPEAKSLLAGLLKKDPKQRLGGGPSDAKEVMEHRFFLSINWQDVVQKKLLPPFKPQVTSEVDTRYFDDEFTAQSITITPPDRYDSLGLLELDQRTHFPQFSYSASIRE
T1 sequence (Q9Y243 whole entry): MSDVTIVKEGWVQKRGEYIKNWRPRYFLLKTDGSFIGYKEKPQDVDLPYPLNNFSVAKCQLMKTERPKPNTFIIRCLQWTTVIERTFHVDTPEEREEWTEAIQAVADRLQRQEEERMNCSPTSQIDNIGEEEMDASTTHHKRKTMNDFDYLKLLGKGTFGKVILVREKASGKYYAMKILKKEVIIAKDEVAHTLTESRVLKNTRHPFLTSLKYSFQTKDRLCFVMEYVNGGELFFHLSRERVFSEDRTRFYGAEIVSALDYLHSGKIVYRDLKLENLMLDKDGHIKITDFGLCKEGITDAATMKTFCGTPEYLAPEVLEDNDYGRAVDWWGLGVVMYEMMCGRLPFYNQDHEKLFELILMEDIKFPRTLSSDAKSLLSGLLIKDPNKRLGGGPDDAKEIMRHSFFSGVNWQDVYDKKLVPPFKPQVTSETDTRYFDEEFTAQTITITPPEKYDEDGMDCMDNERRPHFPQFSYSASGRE
T3 sequence (P31749 whole entry): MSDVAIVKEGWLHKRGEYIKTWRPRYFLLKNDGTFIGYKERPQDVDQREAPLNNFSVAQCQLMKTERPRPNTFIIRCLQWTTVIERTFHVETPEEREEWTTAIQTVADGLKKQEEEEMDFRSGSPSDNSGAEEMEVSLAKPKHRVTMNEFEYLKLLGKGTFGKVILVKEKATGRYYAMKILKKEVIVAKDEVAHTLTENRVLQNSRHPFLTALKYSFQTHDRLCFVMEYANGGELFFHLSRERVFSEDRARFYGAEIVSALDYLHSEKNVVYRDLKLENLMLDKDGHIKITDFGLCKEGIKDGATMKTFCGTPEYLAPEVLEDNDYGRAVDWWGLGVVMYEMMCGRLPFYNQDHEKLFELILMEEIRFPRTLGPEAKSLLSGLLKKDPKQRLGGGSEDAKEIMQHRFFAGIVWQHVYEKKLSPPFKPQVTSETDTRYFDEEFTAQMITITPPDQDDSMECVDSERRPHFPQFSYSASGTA

Take `COc1nc(N2CCN(C(C)=O)CC2)nc2oc(-c3ccc(C4(N)CCC4)cc3)c(-c3ccccc3)c12` [Example 45, 1-(4-(6-(4-(1-Aminocyclobutyl)phenyl)-4-methoxy-5-phenylfuro[2,3-d]pyrimidin-2-yl)piperazin-1-yl)ethanone]: the IC50 lay in the range of 1 to 10 µM at AKT3, 0.1 to 1 µM on AKT2 and 0.1 to 1 µM on AKT1.

Consider `CCOc1nc(N2CCNCC2)nc2oc(-c3ccc(C4(N)CCC4)cc3)c(-c3ccccc3)c12` [Example 46, 1-(4-(4-Ethoxy-5-phenyl-2-(piperazin-14)furo[2,3-d]pyrimidin-6-yl)phenyl)cyclobutanamine, HCl], for which the IC50 at AKT3, at AKT2 and at AKT1 was 0.1 to 1 µM throughout.

As for `COc1nc(N2CCCCC2)nc2oc(-c3ccc(C4(N)CCC4)cc3)c(-c3ccccc3)c12` [Example 47, 1-(4-(4-Methoxy-5-phenyl-2-(piperidin-1-yl)furo[2,3-d]pyrimidin-6-yl)phenyl)cyclobutanamine], the IC50 was above 10 µM at AKT3, 1 to 10 µM on AKT2 and 1 to 10 µM at AKT1.

Consider `COc1nc(NC(C)=O)nc2oc(-c3ccc(C4(N)CCC4)cc3)c(-c3ccccc3)c12` [Example 48, N-(6-(4-(1-Aminocyclobutyl)phenyl)-4-methoxy-5-phenylfuro[2,3-d]pyrimidin-2-yl)acetamide], for which the IC50 is 0.1 to 1 µM on AKT3, 0.1 to 1 µM on AKT2 and at most 0.1 µM on AKT1.

With `COc1nc(OC)c2c(-c3ccccc3)c(-c3ccc(C4(N)CCC4)cc3)oc2n1` [Example 49, 1-(4-(2,4-Dimethoxy-5-phenylfuro[2,3-d]pyrimidin-6-yl)phenyl)cyclobutanamine], the IC50 at AKT3 was above 10 µM; at AKT2 it was 0.1 to 1 µM; on AKT1, at most 0.1 µM.

Regarding `NC1CCN(c2ncc3c(-c4ccccc4)c(-c4ccc(C5(N)CCC5)cc4)oc3n2)CC1` [Example 50, 1-(6-(4-(1-Aminocyclobutyl)phenyl)-5-phenylfuro[2,3-d]pyrimidin-2-yl)piperidin-4-amine], the IC50 was above 10 µM at AKT3, 0.1 to 1 µM at AKT2 and 1 to 10 µM on AKT1.

`NC1(c2ccc(-c3oc4nc(NCCO)ncc4c3-c3ccccc3)cc2)CCC1` [Example 51, 2-((6-(4-(1-Aminocyclobutyl)phenyl)-5-phenylfuro[2,3-d]pyrimidin-2-yl)amino)ethanol]: the 50% inhibitory concentration (IC50) at AKT3 is above 10 µM; on AKT2, 0.1 to 1 µM; on AKT1 it was 0.1 to 1 µM.

Take `NC1(c2ccc(-c3oc4nc(N5CCOCC5)ncc4c3-c3ccccc3)cc2)CCC1` [Example 52, 1-(4-(2-Morpholino-5-phenylfuro[2,3-d]pyrimidin-6-yl)phenyl)cyclobutanamine]: the IC50 is above 10 µM at AKT3, 0.1 to 1 µM at AKT2 and 1 to 10 µM on AKT1.

As to `NC1(c2ccc(-c3oc4nc(N5CCNCC5)ncc4c3-c3ccccc3)cc2)CCC1` [Example 53, 1-(4-(5-Phenyl-2-(piperazin-1-yl)furo[2,3-d]pyrimidin-6-yl)phenyl)cyclobutanamine], the IC50 was above 10 µM at AKT3, 0.1 to 1 µM on AKT2 and 0.1 to 1 µM at AKT1.

Regarding `NC1(c2ccc(-c3oc4nc(OCCO)ncc4c3-c3ccccc3)cc2)CCC1` [Example 54, 2-((6-(4-(1-Aminocyclobutyl)phenyl)-5-phenylfuro[2,3-d]pyrimidin-2-yl)oxy)ethanol], the values for the half-inhibitory concentration (IC50) on AKT3, on AKT2 and on AKT1 were above 10 µM, 0.1 to 1 µM and at most 0.1 µM, respectively.

As to `CNc1ncc2c(-c3ccccc3)c(-c3ccc(C4(N)CCC4)cc3)oc2n1` [Example 55, 6-(4-(1-Aminocyclobutyl)phenyl)-N-methyl-5-phenylfuro[2,3-d]pyrimidin-2-amine], the IC50 at AKT3 is above 10 µM; on AKT2, 0.1 to 1 µM; at AKT1 it was at most 0.1 µM.
